Source: patent publication US20230247992A1, “ARTHROPOD CONTROL COMPOSITION” (Firmenich SA, priority 2020, published 2023)
Where two headings read alike, the source gives them in different places.

Legend:
Type in all cases: in vivo
Aedes aegypti [1] = assay: in vitro Warm Body assay, substance introduced in the cage air by forced evaporation (spatial repellence)
Experimental: (§1) The controlling effect, repellence & spatial repellence, according to the present invention is determined by testing the Warm Body assay against the yellow fever mosquito, Aedes aegypti Rockefeller strain. […] Observations of controlling efficacy were made on host-seeking females of uniform age, 5 to 10 days old selected as mentioned in the publication mentioned hereinabove. Tested hungry females had access to 10% sugar solution but were not blood-fed. Further information is provided in the accompanying examples.
(§2) The published protocol has been adapted in not manually counting the landing mosquitoes but automatically using an automatic counting software, the switch from Anopheles gambiae to A. aegypti led to a decrease of mosquitoes’ number placed in the tested cage due to the size difference (i.e. 30 mosquitoes instead of 50) and to an increase of lighting as A. aegypti is a diurnal mosquitoes (i.e. 150 lux instead of 4 lux). Further information is provided in the accompanying examples.,
(§3) The controlling effect of the compositions according to the present invention was assessed using an adapted Warm Body assay as defined in Kröber T, Kessler S, Frei J, Bourquin M, Guerin PM. 2010. An in vitro assay for testing mosquito controlling compounds employing a warm body and carbon dioxide as a behavioral activator. J Am Mosq Control Assoc. 26:381-386. In this in-vitro assay the number of mosquito landing on a warm body, simulating an attractive host treated with the tested stimuli, was measured in order to assess the repellence effect.
as §2, with “to Aedes” for “to A.”, “lux).” for “lux). Further information is provided in the accompanying examples.,”
(§4) In addition, since the inventors were interested by assessing spatial repellence added or not to a deterrent effect, the substance was applied using two different technics. Whether, as in Kröber et al. (2010), both deterrent and repellent effect were investigated (i.e. similar effect than most body care applications such as lotion) and the substances was applied on a sandblasted glass Petri dish placed on top of the warm body. Whether only the spatial repellence was investigated (i.e. similar effect than most home care applications such as liquid electric dispenser) and the substance was introduced in the cage space thanks to a forced evaporation system as described in Chappuis C J-F, Niclass Y, Vuilleumier C, Starkenmann C. 2015. Quantitative Headspace Analysis of Selected Odorants from Latrines in Africa and India. Environ. Sci. Technol. 49:6134-6140.
(§5) As stated in Kröber et al. (2010), selected 10-12 days old hungry females, that had ad libitum access to 10% sugar solution but were not blood-fed, were selected for the assay.
The forced evaporation system allows to fill the volume of the cage with stimuli tested, (2-methyl-4-oxo-3-prop-2-ynylcyclopent-2-en-1-yl) 2,2-dimethyl-3-(2-methylprop-1-enyl)cyclopropane-1-carboxylate (prallethrin) and N,N-diethyl-3-methylbenzamide (DEET) being used as benchmarks. In order to limit potential dead volumes in the cage, five flushes of the cage were made before starting the 2 minutes test during which the number of mosquito landings was counted.

Aedes aegypti [2] = assay: in vitro Warm Body assay, substance applied on glass Petri dish on top of the warm body (deterrence and repellence)
Experimental: as §1, §2, §3
as §2, with “to Aedes” for “to A.”, “lux).” for “lux). Further information is provided in the accompanying examples.,”
as §4, §5
On the sandblasted glass Petri dish covering the warm body (28.3 cm^2), 100 µL of the substances diluted at different concentrations in ethanol was applied. The number of mosquito landing on the warm body was counted for each stimuli, N,N-diethyl-3-methylbenzamide (DEET) and ethyl 3-[acetyl(butyl)amino]propanoate (IR3535) being used as benchmarks and pure ethanol as control.

Ixodes ricinus = assay: whole plant or invertebrate; details: for pest or weed control at 1 µg/cm2, 1 µg/cm2 / pest or weed control at 5 µg/cm2, 5 µg/cm2 / pest or weed control at 25 µg/cm2, 25 µg/cm2 / pest or weed control at 0.04 µg/cm2, 0.04 µg/cm2: Ixodes ricinus, read-out: mean percentage of ticks affected; for pest or weed control at 0.04 µg/cm2, 0.04 µg/cm2: 0.04 µg/cm^2, diluted in ethanol; for tick response compared with the benchmark IR3535: concentrations tested
[3] = 0.04% in ethanol, ethanol control 67.0±8.8 landings
[4] = 1% in ethanol, ethanol control 67.0±8.8 landings
[5] = […] in ethanol, ethanol control 67.0±8.8 landings
[6] = 0.0017 µg/L air, without substance 54.7±3.2
[7] = 0.017 µg/L air, without substance 54.7±3.2
[8] = 0.17 µg/L air, without substance 54.7±3.2
[9] = 1.7 µg/L air, without substance 54.7±3.2
[10] = 17 µg/L air, without substance 54.7±3.2
[11] = 0.04% in ethanol, ethanol control 59.3±6.9 landings
[12] = 1% in ethanol, ethanol control 59.3±6.9 landings
[13] = […] in ethanol, ethanol control 59.3±6.9 landings
[14] = 1 µg/cm^2, diluted in ethanol, ethanol control 1.0±1.2%
[15] = 5 µg/cm^2, diluted in ethanol, ethanol control 1.0±1.2%
[16] = 25 µg/cm^2, diluted in ethanol, ethanol control 1.0±1.2%
[17] = 1 µg/cm^2, diluted in ethanol, ethanol control 0.6±0.5%
[18] = 25 µg/cm^2, diluted in ethanol, ethanol control 0.6±0.5%
[19] = 0.0017 µg/L air, without substance 56.0±3.6
[20] = 0.017 µg/L air, without substance 56.0±3.6
[21] = 0.17 µg/L air, without substance 56.0±3.6
[22] = 1.7 µg/L air, without substance 56.0±3.6
[23] = 17 µg/L air, without substance 56.0±3.6
[24] = 0.04% in ethanol, ethanol control 67.1±9.1 landings
[25] = 1% in ethanol, ethanol control 67.1±9.1 landings
[26] = […] in ethanol, ethanol control 67.1±9.1 landings

Structure (SMILES)	number of mosquitoes landing within 2 minutes on the warm body (Aedes aegypti [2]; [3])	number of mosquitoes landing within 2 minutes on the warm body (Aedes aegypti [2]; [4])	number of mosquitoes landing within 2 minutes on the warm body (Aedes aegypti [2]; [5])	pest or weed control at 1 µg/cm2, 1 µg/cm2 (Ixodes ricinus)	pest or weed control at 5 µg/cm2, 5 µg/cm2 (Ixodes ricinus)	pest or weed control at 25 µg/cm2, 25 µg/cm2 (Ixodes ricinus)	number of mosquitoes landing within 2 minutes on the warm body, air in the cage saturated with stimulus (Aedes aegypti [1]; [6])	number of mosquitoes landing within 2 minutes on the warm body, air in the cage saturated with stimulus (Aedes aegypti [1]; [7])	number of mosquitoes landing within 2 minutes on the warm body, air in the cage saturated with stimulus (Aedes aegypti [1]; [8])	number of mosquitoes landing within 2 minutes on the warm body, air in the cage saturated with stimulus (Aedes aegypti [1]; [9])	number of mosquitoes landing within 2 minutes on the warm body, air in the cage saturated with stimulus (Aedes aegypti [1]; [10])	number of mosquitoes landing within 2 minutes on the warm body (Aedes aegypti [2]; [11])	number of mosquitoes landing within 2 minutes on the warm body (Aedes aegypti [2]; [12])	number of mosquitoes landing within 2 minutes on the warm body (Aedes aegypti [2]; [13])	pest or weed control at 1 µg/cm2, 1 µg/cm2 (Ixodes ricinus; [14])	pest or weed control at 5 µg/cm2, 5 µg/cm2 (Ixodes ricinus; [15])	pest or weed control at 25 µg/cm2, 25 µg/cm2 (Ixodes ricinus; [16])	number of mosquitoes landing within 2 minutes on the warm body (Aedes aegypti [2]; [24])	number of mosquitoes landing within 2 minutes on the warm body (Aedes aegypti [2]; [25])	number of mosquitoes landing within 2 minutes on the warm body (Aedes aegypti [2]; [26])	also measured
C/C=C/c1ccc(O)c(OC)c1 [2-methoxy-4-[(E)-prop-1-enyl]phenol]	14.0	0.0	57.0	8%	67%	83%															number of mosquitoes landing within 2 minutes on the warm body, air in the cage saturated with stimulus (Aedes aegypti [1]; 0.017 µg/L air, without substance 54.1±4.9): 12.0; number of mosquitoes landing within 2 minutes on the warm body, air in the cage saturated with stimulus (Aedes aegypti [1]; 0.17 µg/L air, without substance 54.1±4.9): 4.0; number of mosquitoes landing within 2 minutes on the warm body, air in the cage saturated with stimulus (Aedes aegypti [1]; 1.7 µg/L air, without substance 54.1±4.9): 11.0; landings per minute (Aedes aegypti [2]; concentration of 0.04%): ~ 10 landings per minute
CC(C=O)Cc1ccc(C(C)C)cc1 (centres unmarked) [2-methyl-3-(4-propan-2-ylphenyl)propanal]							26.3	21.3	7.8	5.0	7.5	20.0	1.0	49.0	7%	46%	85%				
O=C1CCC2CCCCC2O1 (centres unmarked) [3,4,4a,5,6,7,8,8a-octahydrochromen-2-one]	7.0	0.0	45.0																		pest or weed control at 0.04 µg/cm2, 0.04 µg/cm2 (Ixodes ricinus; ethanol control 0.6±0.5%): 33%; pest or weed control at 1 µg/cm2, 1 µg/cm2 (Ixodes ricinus; [17]): 17%; pest or weed control at 25 µg/cm2, 25 µg/cm2 (Ixodes ricinus; [18]): 92%
C=Cc1ccc(O)c(OC)c1 [4-ethenyl-2-methoxyphenol]				17%	46%	100%												5.0	0.0	36.0	number of mosquitoes landing within 2 minutes on the warm body, air in the cage saturated with stimulus (Aedes aegypti [1]; [19]): 11.0; number of mosquitoes landing within 2 minutes on the warm body, air in the cage saturated with stimulus (Aedes aegypti [1]; [20]): 15.0; number of mosquitoes landing within 2 minutes on the warm body, air in the cage saturated with stimulus (Aedes aegypti [1]; [21]): 0.0; number of mosquitoes landing within 2 minutes on the warm body, air in the cage saturated with stimulus (Aedes aegypti [1]; [22]): 3.0; number of mosquitoes landing within 2 minutes on the warm body, air in the cage saturated with stimulus (Aedes aegypti [1]; [23]): 2.0; landings in 2 minutes (Aedes aegypti [1]; dose of 0.17 µg/L of air): less than five; ticks prevented from climbing up in search of a feeding site (Ixodes ricinus; highest concentration of 1% (25 µg/cm^2)): all tested ticks
CCCCCC1CCC(=O)O1 (centres unmarked) [5-pentyloxolan-2-one]							14.7	23.0	15.3	7.7	2.0	16.0	1.0	76.0	31%	83%	100%				tick response compared with the benchmark IR3535 (Ixodes ricinus): response similar to the benchmark IR3535
CC(C)=CCC/C(C)=C/C=O [(2E)-3,7-dimethylocta-2,6-dienal]				15%	0%	58%	25.3	15.7	15.3	14.7	23.0	16.0	2.0	89.0							decrease of landings (Aedes aegypti [1]; identical at all concentrations tested): ~ 67%
CCC/C=C1\OC(=O)c2ccccc21 [(3Z)-3-butylidene-2-benzofuran-1-one]				77%	100%	100%												9.0	1.0	54.0	number of mosquitoes landing within 2 minutes on the warm body, air in the cage saturated with stimulus (Aedes aegypti [1]; [19]): 59.0; number of mosquitoes landing within 2 minutes on the warm body, air in the cage saturated with stimulus (Aedes aegypti [1]; [20]): 31.5; number of mosquitoes landing within 2 minutes on the warm body, air in the cage saturated with stimulus (Aedes aegypti [1]; [21]): 17.0; number of mosquitoes landing within 2 minutes on the warm body, air in the cage saturated with stimulus (Aedes aegypti [1]; [22]): 11.0; number of mosquitoes landing within 2 minutes on the warm body, air in the cage saturated with stimulus (Aedes aegypti [1]; [23]): 37.0; repulsion (Aedes aegypti [1]; doses of 1.7 and/or 17 µg/L in air): < 90%; tick response compared with the benchmark IR3535 (Ixodes ricinus): greater tick repellency; ticks affected (Ixodes ricinus; intermediate dose tested (0.2%)): all tested ticks were affected; fraction of the ticks affected (Ixodes ricinus; lowest dose tested (0.04%)): more than ¾
CCCCN(CCC(=O)OCC)C(C)=O [ethyl 3-[acetyl(butyl)amino]propanoate, reference compound]	20.7	7.7	70.0									20.7	7.7	70.0	33%	67%	91%	20.7	7.7	70.0	mean percentage of ticks affected (Ixodes ricinus; [17]): 33%; mean percentage of ticks affected (Ixodes ricinus; 1 µg/cm^2, diluted in ethanol, ethanol control 4.3±2.1%): 33%; mean percentage of ticks affected (Ixodes ricinus; 5 µg/cm^2, diluted in ethanol, ethanol control 0.6±0.5%): 67%; mean percentage of ticks affected (Ixodes ricinus; 5 µg/cm^2, diluted in ethanol, ethanol control 4.3±2.1%): 67%; mean percentage of ticks affected (Ixodes ricinus; [18]): 91%; mean percentage of ticks affected (Ixodes ricinus; 25 µg/cm^2, diluted in ethanol, ethanol control 4.3±2.1%): 91%; pest or weed control at 0.04 µg/cm2, 0.04 µg/cm2 (Ixodes ricinus; ethanol control 0.6±0.5%): 13%
